For series [1], the system named is TNBS-induced colitis. The settings on record: Watanabe et al.; cited from earlier work.
Series [2] concerns mouse bone marrow derived macrophages (BMDMs). The settings on record: Muchamuel et al. 2009; cited from earlier work.
Series [3] has as its system proteasome inside the Karpas 1106p cells. The series can be described thus: Cell-based Proteasome-Glo assay after compound removal. Further details: species or system human. The settings on record: 4 hours, read-out: Proteasome-glo β5-IC50.
The next series has as its system Karpas cells. As to the kind of experiment: Accumulation of poly-ubiquitinylated proteins in Karpas cells (anti-ub blot). The format is cell-based, human. The settings on record: 24 hours treatment. Here is the method: FIGS. 5A-C show experimental results relating to SAR studies and target engagement inside the cells. FIG. 5A is a graph showing experimental results relating to inhibition of i-20S β5i and c-20S β5c by selected dipeptides. […] FIG. 5C is an image of an SDS-page gel showing accumulation of poly-ubiquitinylated (ub) proteins. Karpas cells were treated with dipeptides, or with bortezomib as a control, at indicated concentrations for 24 hours, and the poly-ub proteins in the lysates were blotted with anti-ub antibody and visualized with a second antibody directed against the first antibody and tagged with a dye that absorbs infrared light (Odyssey® CLx imaging system, LICOR).

The test system of the next series is 4T1 mammary carcinoma. The note with it: i.p. daily 6 mg/kg from Day 10, sacrifice Day 20; p<0.05.
Series [4] has as its system TNBS-induced colitis. As to the kind of experiment: TNBS-induced colitis in mice.
The test system of series [5] is Karpas 1106p cells. The series can be described thus: Cytotoxicity (LD50) against Karpas lymphoma cells. The series is classed as cell-based, human. The note with it: Table 4.
The subject of series [6] is HepG2 human hepatoma cells. As to the kind of experiment: Cytotoxicity against HepG2. The series is classed as cell-based. The note with it: concentrations up to 50 μM.
The subject of another series is mouse i-20S β5i. As to the kind of experiment: Predicted inhibition of mouse i-20S β5i over mouse c-20S β5c. The series is classed as biochemical. The note with it: predicted from sequence identity.
Series [7] concerns mouse bone marrow derived macrophages (BMDMs). The series can be described thus: Cytokine production in LPS-activated macrophages (ELISA, qPCR). The format is cell-based. Here is the method: Culture supernatants were harvested 24 hours (h) after LPS stimulation and analyzed for cytokine production by enzyme-linked immunosorbent assay (ELISA). Total RNA was isolated 4 h after LPS stimulation and analyzed by real time quantitative polymerase chain reaction (PCR) for IL-12p35 and IL-12/IL-23p40 genes. Data are expressed relative to levels of glyceraldehyde 3-phosphate dehydrogenase (GAPDH) levels and represent three independent experiments.
The dipeptide compounds and their relative inhibitory results on the βcomponent of the human immunoproteasome (β5i) and constitutive proteasome (β5c) are described in Examples 151 and 152.
A general note: An ELISA detects its analyte on a solid surface through an enzyme-linked reagent.

Series [8] has the same test system. As to the kind of experiment: Cytotoxicity against BMDMs. The note with it: concentrations up to 50 μM.
Series [9] deals with human peripheral blood mononuclear cells. The series can be described thus: Cytotoxicity against PBMCs. The series is classed as cell-based. The note with it: concentrations up to 50 μM.
Series [10] relates to human B-lymphoma cell line. The series can be described thus: Cytotoxicity against B-lymphoma cell line. The format is cell-based. The settings on record: concentrations up to 50 μM.
Series [11] has as its system Karpas 1106p cells. The series can be described thus: Cytotoxicity (LD50) against Karpas lymphoma cells. The note with it: Table 3. The format is cell-based, human. An excerpt:
Table 3 lists the inhibition kinetic parameters, selectivity index, and calculated log Ps of selected dipeptides.

For the next series, the target named is hu i-20S β5i-subunit (Homo sapiens, UniProt P20618+P28062). As to the kind of experiment: N,C-capped dipeptides IC50, Ac-ANW-AMC fluorescence assay. The series is classed as biochemical.
For a further series, the system named is RAW264 GFP-LC3 cells. The series can be described thus: Autophagy induction in RAW264 GFP-LC3 cells. The series is classed as cell-based, mouse. The note with it: 10 nM, 37° C. overnight; bafilomycin A 20 nM 4 hours. Here is the method: Prior to fixation with 4% paraformaldehyde, the cells were treated with bafilomycin A (20 nM), an inhibitor of the late phase of autophagy, for 4 hours. Fluorescent images were recorded digitally with a multiphoton microscope. […]

We go through 3 compounds from USRE49816E1, “Dipeptides as inhibitors of human immunoproteasomes” (CORNELL UNIVERSITY, priority 2014, dated 2024).

By IC50 is commonly meant the concentration needed to halve the response being measured.

Entries after “also recorded” stand apart in the source; their conditions may differ.

Procedure for hu i-20S β5i-subunit: All inhibitory assays for N,C capped dipeptides were performed in a black solid-bottom 96-well plate. In general, compound plates were prepared starting from 10 mM in 3× series dilution to 15 μM. 1 μl of DMSO stock was transferred to a black 96-well plate and 100 μL of reaction mixture were added 15 μM N-acetyl-Alanine-Asparagine-Tryptophan-7-amino-4-methylcourmarin (Ac-ANW-AMC) or 25 μM succinyl-Leucine-Leucine-Valine-Tyrosine-7-amino-4-methyl-courmarin (succ-LLVY-AMC), 0.4 nM hu i-20S β5i-subunit or 0.2 nM hu c-20S β5c-subunit, 0.02% SDS, 1% BSA, 0.5 mM EDTA in 20 mM HEPES buffer at pH7.5. The plates were then spun at 1000 rpm for 1 minute, and the fluorescence units of each well were recorded at λex=360 nm, λem=460 nm for 2 hours. The slopes of the initial linear range of the time course were used to calculate the velocity, and relative activities were normalized to the velocities of the DMSO control.

As for `CC(=O)N[C@H]1C(O)O[C@H](CO)[C@@H](O)[C@@H]1O[C@H](C)C(=O)N[C@@H](C)C(=O)N[C@H](CCC(=O)O)C(N)=O` (mixture of isomers) [MDP, muramyl dipeptide], the protection from colitis entry in the series on TNBS-induced colitis [1] is given as “protected mice from colitis”.

On to `COc1ccc(C[C@H](NC(=O)[C@H](C)NC(=O)CN2CCOCC2)C(=O)N[C@@H](Cc2ccccc2)C(=O)[C@]2(C)CO2)cc1` [ONX 0914], for which, in series [2], the “effect on cytokines analyzed” value is reported as “inhibitory”.

As for `CC(C)(C)ONC(=O)C[C@H](NC(=O)CCc1ccccc1)C(=O)N[C@@H](Cc1ccc(F)cc1)C(=O)NCc1cccc2ccccc12` [DPLG-3], the IC50 in series [3] is 0.11 µM. Moreover, the “accumulation of poly-ubiquitinylated proteins” value in the series on Karpas cells is “did not cause accumulation”. Further, the “tumor size and weight” value in the series with 4T1 mammary carcinoma is “reducing the size and weight”. The adverse effects entry in the series with TNBS-induced colitis [4] (I.P. 3-12 mg/kg, TNBS mice) was “did not cause detectable adverse effects”. Also, the colitis-induced weight loss entry in the series with TNBS-induced colitis [4] (I.P. at day −1, 1 and 3, 3, 6 and 12 mg/kg, dose-dependent) is “strongly inhibited colitis-induced weight loss”. Besides, in the series with TNBS-induced colitis [4] (one-time i.v. injection (6 mg/kg) at time of TNBS challenge, WT mice), the “colitis-induced weight loss / pathogenesis” value is recorded as “strongly inhibited colitis-associated pathogenesis; also recorded: strongly inhibited colitis-induced weight loss”. Moreover, the “LD50 Karpas” value in the series on Karpas 1106p cells [5] worked out at 2.04 µM. Further, the cytotoxicity entry in series [6] is listed as “not cytotoxic”. Besides, the “inhibition of mouse i-20S β5i over mouse c-20S β5c” value in the series on mouse i-20S β5i is “potently and selectively inhibit”. In series [7], the IL-10 production entry is given as “no significant effects”; the “sensitivity of IL-12 and IL-23 production vs TNF-α (factor)” value was 10-20. In addition, in [7] (LPS 1 μg/ml, 24 h, ELISA), the “production of IL-12” value is “dose-dependently inhibited”, the “production of IL-12/IL-23p40” value was “dose-dependently inhibited” and the “production of TNF-α” value was “dose-dependently inhibited”. Besides, the “transcription of P35 and P40” value in series [7] (mRNA 4 h after LPS, qPCR relative to GAPDH) is “reduced”. The IL-6 production entry in series [7] (on its own) is reported as “dose-dependently induced”. In addition, the cytotoxicity entry in series [8] is “not cytotoxic”. Moreover, the cytotoxicity entry in series [9] is “not cytotoxic”. Moreover, the cytotoxicity result in series [10] was “not cytotoxic”. In addition, the LD50 in the series with Karpas 1106p cells [11] stood at 2.04 µM. Also, at hu i-20S β5i-subunit, the mode of inhibition result is recorded as “competitive inhibition”. Further, in the series on RAW264 GFP-LC3 cells, the induction of autophagy result is “induces autophagy”.
